Measurements: US12648574B2 (priority 2019, dated 2026)
Where two headings read alike, the source gives them in different places.

What was measured:
[1] = test system: Erwinia amylovora EPS 101; format: cell-based
[2] = test system: Xanthomonas arboricola pv. pruni CFBP 5563; format: cell-based
[3] = test system: Pseudomonas syringae pv. syringae EPS 94; format: cell-based
[4] = test system: Xanthomonas fragariae 349-9^a; format: cell-based
[5] = test system: Xanthomonas axonopodis pv. vesicatoria IVIA 2133.2; format: cell-based
[6] = test system: Ralstonia solanacearum CECT 125; format: cell-based; details: streptomycin 100 mg/L
[7] = test system: Xylella fastidiosa subsp. fastidiosa IVIA 5387.2; format: cell-based; details: streptomycin 100 mg/L
[8] = test system: Xylella fastidiosa subsp. multiplex IVIA 5901.2; format: cell-based; details: streptomycin 100 mg/L
[9] = test system: Xylella fastidiosa subsp. pauca DD1 CODiRo; format: cell-based; details: streptomycin 100 mg/L
[10] = test system: Erwinia amylovora EPS 101; format: cell-based; remark: listed apart in the source
[11] = test system: Xanthomonas arboricola pv. pruni CFBP 5563; format: cell-based; remark: listed apart in the source
[12] = test system: Xanthomonas axonopodis pv. vesicatoria IVIA 2133.2; format: cell-based; details: 2 h
[13] = test system: X. fastidiosa subsp. pauca strain CoDiRO (DD1); format: cell-based, Xylella fastidiosa subsp. pauca; details: streptomycin 100 mg/L
[14] = test system: Xylella fastidiosa subsp. multiplex IVIA 5901.2; format: cell-based; details: for mean survival: ampicillin 100 mg/L
[15] = test system: Xylella fastidiosa subsp. fastidiosa IVIA 5387.2; format: cell-based; details: for mean survival: streptomycin 100 mg/L
[16] = test system: EPS101 strain of E. amylovora in pear plants of the Conference variety; set-up: species or system Erwinia amylovora; details: in vivo
[17] = test system: 11 phytopathogenic strains; format: cell-based
[18] = test system: X. fastidiosa subsp. fastidiosa (IVIA strain 5387.2); format: cell-based, Xylella fastidiosa subsp. fastidiosa; details: ampicillin 100 mg/l
[19] = test system: Xylella fastidiosa subsp. fastidiosa strain 5387.2 in almond plants of the Avijor variety; format: in vivo; details: ampicillin 100 mg/L
[20] = 31 days after application, qPCR of sap

## [H]/N=C(/N)N[C@H]1[C@H](O)[C@@H](O)[C@H](O[C@@H]2O[C@@H](C)[C@](O)(C=O)[C@H]2O[C@@H]2O[C@@H](CO)[C@H](O)[C@@H](O)[C@@H]2NC)[C@@H](N/C(N)=N\[H])[C@@H]1O [streptomycin]
[1]
  bacterial growth: −
[2]
  bacterial growth: −
[3]
  bacterial growth: −
[4]
  bacterial growth: −
[5]
  bacterial growth: −
[6]
  bacterial growth: −
[7]
  bacterial growth: −
[8]
  bacterial growth: −
[9]
  bacterial growth: −
[10]
  survival: significant reduction
[11]
  mean survival: 0.01%
[11]; 2 hours
  survival: no survival
[12]
  survival: 3.06
[13]; 30 minutes
  survival: 89.8%
[13]; 120 minutes
  survival: 61.7%
[14]; streptomycin 100 mg/L
  survival compared to the untreated control: no significant differences
[15]; 30 minutes
  mean survival: 4.4%
[15]; 120 minutes
  mean survival: 20%
[16]
  severity of infections with respect to untreated control: significantly reduced
[17]
  growth of all pathogens tested: inhibited the growth

## CC1(C)S[C@@H]2[C@H](NC(=O)[C@H](N)c3ccccc3)C(=O)N2[C@H]1C(=O)O [ampicillin]
[14]; 30 minutes
  mean survival: 2%
[14]; 120 minutes
  mean survival: 4.4%
[15]; ampicillin 100 mg/L
  type of effect: bacteriostatic effect
[15]; ampicillin 100 mg/L, 30 and 120 minutes, direct suspension or dilution −1
  survival: no survival
[18]; 30 minutes
  median survival: 100%
[18]; 2 hours
  survival: 20.6%
[19]; 18 h after application, 4 plants
  plants with decrease of viable bacteria at the inoculation point: 25 % of the plants
[19]; 31 days after application
  plants with upward and downward movement of Xylella fastidiosa: 75 % of the plants
[19]; [20]
  plants with Xylella fastidiosa not detected in A1: 25 % of plants
  plants with Xylella fastidiosa not detected in A2: 25 % of plants
  plants with Xylella fastidiosa not detected in B: 25 % of plants
[19]; curative trunk microinjection, product 20 and 40 μl/ml, 31 days after application
  severity of infections with respect to untreated control: significantly reduced
[19]; product 20 μl/ml, 14 days after application
  lower progression of Xylella fastidiosa by the vascular system (qPCR): not observed
